Test results: patent US12122750B2, “AT2R antagonists and uses thereof” (Eli Lilly and Company, priority 2022, dated 2024)

Experiments:
AT2R = AT2R (Rattus norvegicus (Rat), UniProt P35351); assay: AT2R ex vivo autoradiography receptor occupancy in rat adrenal sections after oral dosing; design: species or system Sprague Dawley rats; details: for IC50 / IC80: plasma concentration plotted vs % receptor occupancy, rat; for receptor occupancy at 0.3 mg/kg: oral dose 0.3 mg/kg; for receptor occupancy at 1 mg/kg: oral dose 1 mg/kg; for receptor occupancy at 3 mg/kg: oral dose 3 mg/kg; for receptor occupancy at 10 mg/kg: oral dose 10 mg/kg; for ex vivo IC50 (TER) / ex vivo IC80 (TER): rat receptor occupancy
Method: The ability for a compound to engage its target may be measured by determining compound's receptor occupancy. An ex vivo autoradiography assay was conducted as described herein.
Twenty male Sprague Dawley rats (140-150 gms, Envigo) were maintained under controlled laboratory conditions on a 12 hr light cycle with ad lib access to food and water. […] Following a pre-determined survival time, plasma and adrenals were collected and frozen at −80° C. until analyzed. Frozen 20 μm sections of an adrenal from each animal were collected onto gelatin-coated slides and stored at −80° C. […] The specific ligand binding for each animal is calculated by subtracting the non-specific binding from the total bound.

rAT2R = rAT2R (Rattus norvegicus (Rat), UniProt P35351); assay: Rat binding affinity, competitive radioligand binding assay (SPA), rAT2R HEK293 membranes; details: rat AT2R
Method: Membrane Preparation Protocol (hAT2R HEK293 and rAT2R HEK293)
Receptor Binding Protocol
The assays were performed with a scintillation proximity assay (SPA) method using polyvinyltoluene (PVT) wheat germ agglutinin-coupled SPA beads (Perkin Elmer Cat. #RPNQ0001). Assay buffer containing BSA (50 mM Tris-HCl, pH 7.5, 150 mM NaCl, 0.1% w/v fatty-acid free BSA) was used for preparing radioligand, membrane and SPA bead reagent dilution to working stock concentrations. Reference control and test compounds were diluted to obtain ten-point concentration response curves using a four-fold serial dilution protocol onto assay plates, dispensed acoustically from DMSO stock using automated ECHO instrument technology (Labcyte, Inc.). Concentration response curves were routinely generated with the highest final assay concentration for the reference angiotensin-II control at 50 nM, and the highest final assay concentration for the test compounds at 50 μM. […] The hAT2R membrane was combined with PVT-WGA SPA beads to obtain a final assay concentration of 0.25 μg/well hAT2R membrane+0.1 mg/well PVT-WGA SPA bead. And the hAT1R membrane PVT-WGA SPA bead final concentrations was 0.5 μg/well hAT1R membrane+0.1 mg/well PVT-WGA SPA bead. […] For all assays, radioligand addition was followed by the addition of membrane-SPA bead mixture, i.e., the hAT2R membrane-SPA bead mixture (30 μL), the rAT2R membrane-SPA bead mixture, or the AT1R membrane-SPA bead mixture (30 μL) into the assay plate. All dispensing steps were added using a Multiflo FX (Biotek, Inc.) bulk dispensing instrument. After reagent addition steps, assay plates were sealed, and plate contents mixed for one minute on a benchtop micro-plate shaker. Following a 10-hour incubation at room temperature to allow for bead settling and radioligand binding, bound radioactivity was quantitated using a Microbeta Trilux scintillation counter (Perkin Elmer) and expressed as counts per minute (CPM). The unlabeled angiotensin-II control was included on each plate as an experimental assay reference.
Compounds were tested in a 10-point concentration response curve (CRC) format, with each plate containing the positive control angiotensin-II positive reference compound, and experimental compounds. Maximum binding response (Max) was determined in 32 control wells per plate using assay buffer treatment only, and the minimum binding controls or nonspecific binding response (Min) was also determined in 32 wells per plate by the treatment with 50 nM angiotensin-II. All test sample concentration responses were normalized to the control response and calculated as a percent of the maximal response after correcting for nonspecific binding as shown below: % Specific inhibition=100%−[(CPM−Min)/(Max−Min)×100%]
Percent specific binding (y-axis) was plotted versus the log concentration of compound (x-axis).

[1] = Plasma concentration of test compound in the receptor occupancy study; format: in vivo, Sprague Dawley rats; details: rat
Method: Twenty male Sprague Dawley rats (140-150 gms, Envigo) were maintained under controlled laboratory conditions on a 12 hr light cycle with ad lib access to food and water. On the morning of the experiment, rats were orally dosed with vehicle (1% (w/v) hydroxyethylcellulose, 0.25% (w/v) polysorbate 80, 0.05% (v/v) antifoam 1510-US in purified water) or appropriate doses of test compound (5 mL/kg, n=4 rats/group) using the same vehicle. Following a pre-determined survival time, plasma and adrenals were collected and frozen at −80° C. until analyzed. Frozen 20 μm sections of an adrenal from each animal were collected onto gelatin-coated slides and stored at −80° C. Autoradiography to detect AT2R occupancy (RO) was conducted under cold conditions using methods modified from F. M. J. Heemskerk, et al, Brain Research 677 (1995) 29-38. Total binding was defined by 0.3 nM ^125I-CGP42112 (selective AT2R agonist, Perkin Elmer, Inc) with the addition of 10 μM unlabeled AngII used to define non-specific binding. Following exposure to a phosphoimager plate (BAS TR2025, GE Healthcare), the bound radioactivity is calculated with use of MCID software (Imaging Research, Inc) and calibrated ^125I standards (American Radiolabeled Chemicals, Inc). The specific ligand binding for each animal is calculated by subtracting the non-specific binding from the total bound.

Chain of AT2R (P35351 whole entry): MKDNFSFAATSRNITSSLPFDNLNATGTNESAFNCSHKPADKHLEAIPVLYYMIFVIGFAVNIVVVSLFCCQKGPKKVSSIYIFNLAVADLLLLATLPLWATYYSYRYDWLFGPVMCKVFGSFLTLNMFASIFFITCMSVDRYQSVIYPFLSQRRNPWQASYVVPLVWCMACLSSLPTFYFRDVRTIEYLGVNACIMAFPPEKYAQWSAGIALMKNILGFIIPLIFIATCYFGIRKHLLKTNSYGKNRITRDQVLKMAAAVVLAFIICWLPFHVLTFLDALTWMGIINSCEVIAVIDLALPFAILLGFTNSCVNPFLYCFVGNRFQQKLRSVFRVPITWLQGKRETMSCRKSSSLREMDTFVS
Chain of rAT2R (P35351 whole entry): as above

SMILES	IC50 (AT2R)	IC80 (AT2R)	receptor occupancy at 0.3 mg/kg (AT2R; rat adrenal, read-out: % RO)	receptor occupancy at 1 mg/kg (AT2R; rat adrenal, read-out: % RO)	receptor occupancy at 3 mg/kg (AT2R; rat adrenal, read-out: % RO)	receptor occupancy at 10 mg/kg (AT2R; rat adrenal, read-out: % RO)	ex vivo IC50 (TER) (AT2R)	ex vivo IC80 (TER) (AT2R)	Ki (rAT2R)	[plasma, free, nM] ([1]; oral dose 0.3 mg/kg)	[plasma, free, nM] ([1]; oral dose 1 mg/kg)	[plasma, free, nM] ([1]; oral dose 3 mg/kg)	[plasma, free, nM] ([1]; oral dose 10 mg/kg)	receptor occupancy at 0.01 mg/kg (AT2R; rat adrenal, oral dose 0.01 mg/kg, read-out: % RO)	receptor occupancy at 0.03 mg/kg (AT2R; rat adrenal, oral dose 0.03 mg/kg, read-out: % RO)	receptor occupancy at 0.1 mg/kg (AT2R; rat adrenal, oral dose 0.1 mg/kg, read-out: % RO)	[plasma, free, nM] ([1]; oral dose 0.01 mg/kg)	[plasma, free, nM] ([1]; oral dose 0.03 mg/kg)	[plasma, free, nM] ([1]; oral dose 0.1 mg/kg)
O=C(N1CCC(CC(=O)N(c2ccccc2)c2ccccc2)(C(=O)O)CC1)N1CCc2ccccc21 [Example 3, 1-(indoline-1-carbonyl)-4-[2-oxo-2-(N-phenylanilino)ethyl]piperidine-4-carboxylic acid]	0.821 nM	3.34 nM	37.8%	61.9%	83.5%	90.5%	0.375 TER	1.525 TER	2.19 nM	0.482 nM	1.74 nM	5.99 nM	15.8 nM						
CN(C(=O)N1CCC(CC(=O)N(c2ccccc2)C(C2CC2)C2CC2)(C(=O)O)CC1)c1ccc(F)cc1 [Example 18, 4-[2-[N-(dicyclopropylmethyl)anilino]-2-oxo-ethyl]-1-[(4-fluorophenyl)-methyl-carbamoyl]piperidine-4-carboxylic acid]	0.114 nM	0.449 nM	79.3%	93.2%	90.9%	93%	0.186 TER	0.731 TER	0.614 nM		2.57 nM			16.3%	65%	76.3%	0.0298 nM	0.224 nM	0.476 nM
